Earlier results in patent publication US20080161405A1, “Biguanide Composition and Method of Treatment and Prevention of Infections” (priority 2006, published 2008).
Values after ≈ are worked out from the molar mass of the structure shown.

What was measured:
[1] = test system: acanthamoeba cysts and trophazoites
[2] = test system: Acanthamoeba keratitis; conditions: case report, recurrence in the eye
[3] = test system: Aspergillus keratitis; conditions: 0.02%
[4] = test system: Fusarium Keratomycosis; conditions: 0.02% solution, rabbit model

| Molecule | minimum inhibitory concentration [1] | treatment of recurrence of Acanthamoeba keratitis [2] | effectiveness in experimental Aspergillus keratitis [3] | reduction of fungal growth [4] |
| --- | --- | --- | --- | --- |
| CCCCC(CC)CNC(=N)NC(=N)NCCCCCCNC(=N)NC(=N)NCC(CC)CCCC (stereo not shown) [Alexidine, 1,1′-hexamethylene-bis[5-(2-ethylhexyl)biguanide]] | 6.3 µg/mL (≈ 12.4 µM) |  |  |  |
| poly(hexamethylene biguanide) [polyhexamethylene biguanide] |  | successfully treated | moderately effective | effective at reducing fungal growth |
